Data reported in patent publication US20050272748A1, “2-Mercapto-substituted triazolopyrimidines, methods for the production thereof, the use of the same for controlling patogenic fungi, and agents containing said compounds” (BASF Aktiengesellschaft, priority 2002, published 2005).

Tested on: Botrytis cinerea
Assay: Activity against gray mold on bell pepper leaves, protective application
Type: in vivo
Conditions: 250 ppm active compound; bell pepper seedlings sprayed to runoff, inoculated next day, evaluated after 5 days; untreated plants 45% infected
Procedure: The active compounds were prepared as a 10% strength emulsion in a mixture of 70% by weight of cyclohexanone, 20% by weight of Nekanil®) LN (Lutensol®) AP6, wetting agent having emulsifying and dispersing action based on ethoxylated alkylphenols) and 10% by weight of Wettol® EM (nonionic emulsifier based on ethoxylated castor oil) and diluted with water to the desired concentration. Use example: Activity against gray mold, caused by Botiytis cinerea, on bell pepper leaves, protective application Bell pepper seedlings of the cultivar “Neusiedler Ideal Elite” were, after 4 to 5 leaves were well-developed, sprayed to runoff-point with an aqueous suspension having the concentration of active compound stated below. The next day, the treated plants were inoculated with a spore suspension of Botrytis cinerea, which contained 1.7×10^6 spores/ml in an aqueous 2% strength biomalt solution. […] After 5 days, the extent of the fungal infection on the leaves could be determined visually in %. […] The efficacy (E) is calculated as follows, using Abbot's formula: E=(1−α/β)·100 • α corresponds to the fungal infection of the treated plants in % and • β corresponds to the fungal infection of the untreated (control) plants in % At an efficacy of 0, the degree of infection of the treated plants corresponds to that of the untreated control plants; at an efficacy of 100, the treated plants were not infected.

Question: `CC1CCN(c2c(-c3c(F)cc(F)cc3F)c(Cl)nc3nc(S)nn23)CC1` [Example 9, 5-chloro-7-(4-methylpiperidin-1-yl)-2-mercapto-6-(2,4,6-trifluorophenyl)-[1,2,4]-triazolo[1,5-a]pyrimidine] was tested. Which “efficacy (Abbot's formula)” value did it give?
Answer: Its value is 56%.
